Measured values taken from EP0287014A2, “Cholesteryl-phosphoryl choline for the reduction of the cholesterol level” (F. HOFFMANN-LA ROCHE AG, priority 1987, dated 1988).
Like-named read-outs stand apart in the source and are kept apart here.

Tests used:
Totenkopfäffchen [1] = experiment: Inhibition of cholesterol absorption after oral [14C]-cholesterol test meal, faecal radioactivity over 2.5 days; type: in vivo; conditions: in percent of untreated control animals
Description: Einer Gruppe von 12 Totenkopfäffchen wurde ein Gemisch enthaltend Triolein, Stärke, Milchpulver, 1 mg [¹⁴C]-Cholesterin und 0.05 mg [³H]-Polyäthylenglycol und unmittelbar darauf eine Dispersion von CPC in 5% Gummi arabicum oral verabreicht. Hierauf wurde der Kot während 2,5 Tagen gesammelt. Die ausgeschiedene [¹⁴C]-Radioaktivität des Cholesterins wurde unter Berücksichtigung der [³H]-Radioaktivität des internen Standards Polyäthylenglycol ermittelt. Es wurde die Cholesterinabsorption (Differenz zwischen der verabreichten und der ausgeschiedenen [¹⁴C]-Radioaktivität des Cholesterins) berechnet und in der nachfolgenden Tabelle in Prozenten von unbehandelten Kontrolltieren angegeben.

Acute toxicity (LD50) = conditions: mouse, in vivo, Maus, read-out: LD₅₀
Description: Was die Toxizität anbelangt, beträgt die LD₅₀ von CPC 125 mg/kg i.v. und 4000 mg/kg p.o. an der Maus.

Totenkopfäffchen [2] = experiment: Plasma cholesterol level during 14 days of feeding with coconut-oil diet; type: in vivo; conditions: for Senkung des Cholesterinspiegels in Prozenten der Kontrolltieren: versus placebo
Description: Totenkopfäffchen wurde pro Tier und Tag 239 mg Lactose als Placebo oder 239 mg CPC zusammen mit Kokonussöl enthaltendem Futter während 14 Tagen verabreicht. Jede 3 oder 4 Tage wurde den Tieren venöses Blut entnommen und der Cholesterinspiegel im Blutplasma ermittelt. In der nachstehenden Tabelle wird der Cholesterinspiegel in Prozenten der Vorperiode sowie die Senkung des Cholesterinspiegels in Prozenten der Kontrolltieren angegeben.

## CC(C)CCC[C@@H](C)[C@H]1CC[C@H]2[C@@H]3CC=C4C[C@@H](OP(=O)([O-])OCC[N+](C)(C)C)CC[C@]4(C)[C@H]3CC[C@]12C [CPC, Cholesteryl-phosphorylcholin]
Totenkopfäffchen [1]; Dosis 30 µMol/kg oral
  Cholesterinabsorption (%): 90 ± 17%
Totenkopfäffchen [1]; Dosis 100 µMol/kg oral
  Cholesterinabsorption (%): 60 ± 10%
Totenkopfäffchen [1]; Dosis 300 µMol/kg oral
  Cholesterinabsorption (%): 12 ± 6%
Acute toxicity (LD50); iv
  LD50: 125 mg/kg
Acute toxicity (LD50); po
  LD50: 4000 mg/kg
Totenkopfäffchen [2]; Tag 1, vor der Behandlung, 239 mg CPC per animal and day
  Cholesterinspiegel im Blutplasma in Prozenten der Vorperiode: 100±8%
Totenkopfäffchen [2]; Tag 1, vor der Behandlung
  Senkung des Cholesterinspiegels in Prozenten der Kontrolltieren: 0%
Totenkopfäffchen [2]; Tag 4, während der Behandlung, 239 mg CPC per animal and day
  Cholesterinspiegel im Blutplasma in Prozenten der Vorperiode: 88±6%
Totenkopfäffchen [2]; Tag 4, während der Behandlung
  Senkung des Cholesterinspiegels in Prozenten der Kontrolltieren: 9%
Totenkopfäffchen [2]; Tag 7, während der Behandlung, 239 mg CPC per animal and day
  Cholesterinspiegel im Blutplasma in Prozenten der Vorperiode: 84±4%
Totenkopfäffchen [2]; Tag 7, während der Behandlung
  Senkung des Cholesterinspiegels in Prozenten der Kontrolltieren: 20%
Totenkopfäffchen [2]; Tag 11, während der Behandlung, 239 mg CPC per animal and day
  Cholesterinspiegel im Blutplasma in Prozenten der Vorperiode: 93±13%
Totenkopfäffchen [2]; Tag 11, während der Behandlung
  Senkung des Cholesterinspiegels in Prozenten der Kontrolltieren: 13%
Totenkopfäffchen [2]; Tag 14, während der Behandlung, 239 mg CPC per animal and day
  Cholesterinspiegel im Blutplasma in Prozenten der Vorperiode: 86±11%
Totenkopfäffchen [2]; Tag 14, während der Behandlung
  Senkung des Cholesterinspiegels in Prozenten der Kontrolltieren: 18%
Totenkopfäffchen [2]; Tag 18, nach der Behandlung, 239 mg CPC per animal and day for 14 days
  Cholesterinspiegel im Blutplasma in Prozenten der Vorperiode: 94±13%
Totenkopfäffchen [2]; Tag 18, nach der Behandlung
  Senkung des Cholesterinspiegels in Prozenten der Kontrolltieren: 9%
Totenkopfäffchen [2]; Tag 21, nach der Behandlung, 239 mg CPC per animal and day for 14 days
  Cholesterinspiegel im Blutplasma in Prozenten der Vorperiode: 97±11%
Totenkopfäffchen [2]; Tag 21, nach der Behandlung
  Senkung des Cholesterinspiegels in Prozenten der Kontrolltieren: 10%
Totenkopfäffchen [2]; summary, versus placebo values and values of the pre-period
  reversible Senkung des Plasmacholesterols: 10 bis 20%
